In patent US11760751B2, “Benzo 2-azaspiro[4.4]nonane compound and use thereof” (HELIOEAST PHARMACEUTICAL CO., LTD., priority 2020, dated 2023):
Counter-ions that a name gives are not always drawn.

What was measured:
[1] = Pharmacokinetic evaluation in CD-1 mice (intravenous and oral); type: in vivo; conditions: male, mouse, plasma
Protocol: Test Embodiment 4: Pharmacokinetic Evaluation of Compound in Mice
Experimental objective: to test the pharmacokinetics of the compound in CD-1 mice
CD-1 mice (male, 20-40 g, 6-10 weeks old, Shanghai BK)
(§1) The standard protocol was used to test the pharmacokinetic characteristics of rodents after intravenous injection and oral administration of the compound. In the experiment, the candidate compound was prepared into a clear solution or a suspension, and administrated to two mice by single intravenous injection and oral administration. The vehicle for intravenous injection was a 5:95 DMSO and 10% hydroxypropyl β-cyclodextrin aqueous solution, and the vehicle for oral administration was a 0.5% w/v methylcellulose and 0.2% w/v tween 80 aqueous solution. Whole blood samples within 24 hours were collected, centrifuged at 3200 g for 10 minutes, and the supernatant was separated to obtain plasma samples. 4-fold volume of acetonitrile solution containing internal standard was added thereto to precipitate protein. The mixture was centrifuged, and the supernatant was taken, and an equal volume of water was added thereto. Then the mixture was centrifuged and the supernatant was taken for injection. The blood drug concentration was quantitatively analyzed by LC-MS/MS analysis method, and pharmacokinetic parameters, such as peak concentration, clearance rate, half-life, area under the drug-time curve and bioavailability, were calculated.

[2] = biological target: T1, S1PR1 (Homo sapiens, UniProt P21453); assay: In vitro S1PR1 agonistic activity, PathHunter cell line, chemiluminescent detection; type: cell-based; conditions: for EC50: 90-180 min at 37° C.; for Emax: % activity vs maximum control ligand
T1 construct: expressed in transfected cells
Protocol: Test Embodiment 1: In Vitro Evaluation of the Agonistic Activity of the Compounds of the Present Disclosure on S1PR1
Experimental objective: to detect the agonistic activity of compounds on S1PR1
I. Cell Treatment • 1. A PathHunter cell line was thawed according to standard procedures; • 2. the cells were inoculated in a 20 μL 384-well microplate and incubated at 37° C. for appropriate time.
II. Agonist • 1. For agonist determination, cells were incubated with samples to be tested to induce a reaction; • 2. a storage solution to be tested was 5-fold diluted into a buffer; • 3. 5 μL of the 5-fold dilution was added to the cells and incubated at 37° C. for 90-180 minutes. The vehicle concentration was 1%.
III. Signal Detection • 1. 12.5 μL or 15 μL of PathHunter detection reagent at a volume ratio of 50% was added at a time, and then incubated at room temperature for 1 hour to generate a detection signal; • 2. the microplate was read with a PerkinElmer Envision™ instrument for chemiluminescent signal detection.
IV. Data Analysis • 1. Activity analysis of the compound was carried out by using CBIS data analysis kit (ChemInnovation, CAA); • 2. calculation formula: % activity=100%×(average test sample RLU−average vehicle RLU)/(average maximum control ligand−average vehicle RLU)

[3] = Pharmacokinetic evaluation in SD rats (intravenous and oral); type: in vivo; conditions: male, Sprague-Dawley, plasma, SD rat; for Cmax / bioavailability: intravenous 1.0 mg/kg; for Cmax: oral 2.0 mg/kg (route of Cmax not stated), read-out: Peak concentration Cmax; for bioavailability: oral 2.0 mg/kg, read-out: Bioavailability F; for clearance / Vd: intravenous injection 1.0 mg/kg (oral 2.0 mg/kg); for clearance: read-out: Clearance rate CL; for Vd: read-out: Tissue distribution Vdss; for AUC(0-t) / half-life: oral administration 2.0 mg/kg; for AUC(0-t): read-out: Area under the drug-time curve AUC0-last PO; for half-life: read-out: Half-life T1/2 (PO) (converted)
Protocol: Test Embodiment 3: Pharmacokinetic Evaluation of Compound in Rats
Experimental objective: to test the pharmacokinetics of the compound in SD rats
Sprague Dawley rat (male, 200-300 g, 7-9 weeks old, Shanghai SLAC)
as §1, with “A standard” for “The standard”, “clear solution,” for “clear solution or a suspension,”, “to rats” for “to two mice”, “hydroxypropyl cyclodextrin” for “hydroxypropyl β-cyclodextrin”, “at 3000” for “at 3200”, “for 15” for “for 10”

T1 sequence (P21453 whole entry): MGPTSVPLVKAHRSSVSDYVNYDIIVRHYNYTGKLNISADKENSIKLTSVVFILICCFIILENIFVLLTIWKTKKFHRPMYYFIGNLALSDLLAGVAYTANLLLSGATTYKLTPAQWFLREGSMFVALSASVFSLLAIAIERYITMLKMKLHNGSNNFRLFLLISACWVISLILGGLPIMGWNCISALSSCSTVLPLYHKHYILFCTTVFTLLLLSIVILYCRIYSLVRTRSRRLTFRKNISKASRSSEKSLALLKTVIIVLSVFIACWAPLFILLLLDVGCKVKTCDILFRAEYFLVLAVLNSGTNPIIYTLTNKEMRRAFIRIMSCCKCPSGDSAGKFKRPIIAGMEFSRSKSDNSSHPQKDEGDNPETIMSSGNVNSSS

Compound | EC50 [2] [nM] | Emax [2] [%] | other results
CC(C)Oc1ncc(-c2nc(-c3cccc4c3CCC43CCN(C(=O)CO)C3)no2)cc1C#N (stereo not drawn) [Compound 8] | 0.188 | 96.8 | Cmax ([1]; intravenous 0.5 mg/kg, oral 2.0 mg/kg (route of Cmax not stated), read-out: Peak concentration Cmax): 2280 ng/mL; bioavailability ([1]; intravenous 0.5 mg/kg, oral 2.0 mg/kg, read-out: Bioavailability F): 80.3%; clearance ([1]; intravenous injection 0.5 mg/kg (oral 2.0 mg/kg), read-out: Clearance rate CL): 3.58 mL/min/kg; Vd ([1]; intravenous injection 0.5 mg/kg (oral 2.0 mg/kg), read-out: Tissue distribution Vdss): 0.816 L/kg; AUC(0-t) ([1]; oral administration 2.0 mg/kg, read-out: Area under the drug-time curve AUC0-last PO): 16.3 µM·h; half-life ([1]; oral administration 2.0 mg/kg, read-out: Half-life T1/2 (PO) (converted)): 2.9 h
CC(C)Oc1ccc(-c2ncc(-c3cccc4c3CCC43CCN(C(=O)CO)C3)s2)cc1C#N (stereo not drawn) [Compound 14] | 1.59 | 82.2 | –
CC(C)Oc1ccc(-c2nc(-c3cccc4c3CCC43CCN(CC4(C(=O)O)CCC4)C3)no2)cc1C#N (stereo not drawn) [Hydrochloride of compound 23] | 0.0353 | 68.3 | –
CC(C)Oc1ccc(-c2nc(-c3cccc4c3CCC43CCN(C(=O)CO)C3)ns2)cc1C#N (stereo not drawn) [Compound 20] | 9.39 | 90.4 | –
CC(C)Oc1ccc(-c2nnc(-c3cccc4c3CCC43CCN(C(=O)CO)C3)s2)cc1C#N (stereo not drawn) [Compound 15] | 2.2 | 98.9 | –
CC(C)Oc1ccc(-c2cnc(-c3cccc4c3CCC43CCN(C(=O)CO)C3)cn2)cc1C#N (stereo not drawn) [Compound 19] | 3.25 | 77.8 | –
CC(C)Oc1ccc(-c2nc(-c3cccc4c3CCC43CCN(C(=O)CN)C3)no2)cc1C#N (stereo not drawn) [Hydrochloride of compound 6] | 0.865 | 115 | –
N#Cc1cc(-c2nc(-c3cccc4c3CCC43CCN(C(=O)CO)C3)no2)ccc1OC1CCCC1 (stereo not drawn) [Compound 9] | 2.15 | 75.8 | –
CC(C)Oc1ccc(-c2nc(-c3cccc4c3CCC43CCN(C(=O)[C@H](O)CO)C3)no2)cc1C#N (stereo partly drawn) [Hydrochloride of compound 44] | 0.72 | 104 | –
O=C(O)C1(CN2CCC3(CCc4c(-c5noc(-c6ccc(C7CCCC7)c(C(F)(F)F)c6)n5)cccc43)C2)CC1 (stereo not drawn) [Hydrochloride of compound 38] | 0.041 | 100 | –
COCC(=O)N1CCC2(CCc3c(-c4noc(-c5ccc(OC(C)C)c(C#N)c5)n4)cccc32)C1 (stereo not drawn) [Compound 3] | 0.129 | 88.6 | –
CC(C)Oc1ccc(-c2ncc(-c3cccc4c3CCC43CCN(CC4(C(=O)O)CC4)C3)o2)cc1C#N (stereo not drawn) [Hydrochloride of compound 27] | 9.78 | 63.4 | –
CC(C)Nc1ncc(-c2nc(-c3cccc4c3CCC43CCN(C(=O)CO)C3)no2)cc1C#N (stereo not drawn) [Compound 13] | 10.7 | 77.8 | –
CC(C)Oc1ccc(-c2ncc(-c3cccc4c3CCC43CCN(CC4(C(=O)O)CC4)C3)s2)cc1C#N (stereo not drawn) [Hydrochloride of compound 26] | 4.47 | 73.8 | –
CC(C)Oc1ccc(-c2nc(-c3cccc4c3CCC43CCN(C(=O)CS(C)(=O)=O)C3)no2)cc1C#N (stereo not drawn) [Compound 7] | 0.123 | 90.7 | –
CC(C)Oc1ccc(-c2nc(-c3cccc4c3CCC43CCN(C(=O)[C@@H](O)CO)C3)no2)cc1C#N (stereo partly drawn) [Compound 45] | 0.29 | 126 | Cmax [3]: 1180 ng/mL; bioavailability [3]: 59.2%; clearance [3]: 1.59 mL/min/kg; Vd [3]: 1.94 L/kg; AUC(0-t) [3]: 22.9 µM·h; half-life [3]: 13.2 h
CC(C)Oc1ccc(-c2nc(-c3cccc4c3CCC43CCN(C(=O)CO)C3)no2)cc1Br (stereo not drawn) [Compound 10] | 1.31 | 101 | –

Compound | EC50 [2] [nM] | Emax [2] [%] | other results
CC(C)Oc1ccc(-c2ncc(-c3cccc4c3CCC43CCN(C(=O)CO)C3)cn2)cc1C#N (stereo not drawn) [Compound 18] | 4.06 | 84.2 | –
COc1cc(-c2nc(-c3cccc4c3CCC43CCN(CC4(C(=O)O)CC4)C3)no2)cc(C2CCCC2)n1 (stereo not drawn) [Compound 40] | 2.82 | 102 | Cmax [3]: 357 ng/mL; bioavailability [3]: 63.9%; clearance [3]: 5.47 mL/min/kg; Vd [3]: 5.99 L/kg; AUC(0-t) [3]: 7.14 µM·h; half-life [3]: 8.83 h
O=C(O)C1(CN2CCC3(CCc4c(-c5noc(-c6ccc(C7CCCCC7)c(C(F)(F)F)c6)n5)cccc43)C2)CC1 (stereo not drawn) [Hydrochloride of compound 37] | 0.047 | 94.1 | –
CC(C)Oc1ccc(-c2nc(-c3cccc4c3CCC43CCN(CC4(C(=O)O)CC4)C3)ns2)cc1C#N (stereo not drawn) [Hydrochloride of compound 24] | 4.99 | 87.1 | –
CC(C)Oc1ccc(-c2ncc(-c3cccc4c3CCC43CCN(CC4(C(=O)O)CC4)C3)cn2)cc1C#N (stereo not drawn) [Hydrochloride of compound 25] | 11.5 | 82.1 | –
CC(C)Oc1ccc(-c2nc(-c3cccc4c3CCC43CCN(CC4(C(=O)O)CC4)C3)no2)cc1C(F)(F)F (stereo not drawn) [Hydrochloride of compound 43] | 0.1 | 108 | –
CC(C)Cc1ccc(-c2nc(-c3cccc4c3CCC43CCN(CC4(C(=O)O)CC4)C3)no2)cc1 (stereo not drawn) [Hydrochloride of compound 46] | 5.76 | 105 | –
CC(C)Oc1ccc(-c2nc(-c3cccc4c3CCC43CCN(C(=O)CO)C3)no2)cc1Cl (stereo not drawn) [Compound 11] | 1.78 | 84.6 | –
N#Cc1cc(-c2nc(-c3cccc4c3CCC43CCN(C(=O)CO)C3)no2)ccc1OC(F)F (stereo not drawn) [Compound 17] | 8.59 | 80.8 | –
CC(C)Oc1ccc(-c2nc(-c3cccc4c3CCC43CCN(C(=O)CO)C3)no2)cc1C(F)F (stereo not drawn) [Compound 12] | 0.477 | 87.6 | –
CC(C)Oc1ccc(-c2nsc(-c3cccc4c3CCC43CCN(C(=O)CO)C3)n2)cc1C#N (stereo not drawn) [Compound 16] | 14.4 | 77.8 | –
CC(C)Oc1ncc(-c2nc(-c3cccc4c3CCC43CCN(CC4(C(=O)O)CC4)C3)no2)cc1Cl (stereo not drawn) [Hydrochloride of compound 39] | 3.46 | 144 | –
CC(C)Oc1ccc(-c2nnc(-c3cccc4c3CCC43CCN(CC4(C(=O)O)CC4)C3)s2)cc1C#N (stereo not drawn) [Hydrochloride of compound 28] | 1.32 | 77.7 | –
CC(C)Oc1ccc(-c2nc(-c3cccc4c3CCC43CCN(C(=O)CCC(=O)O)C3)no2)cc1C#N (stereo not drawn) [Compound 5] | 0.0688 | 85.1 | –
CC(C)Oc1ccc(-c2ncc(-c3cccc4c3CCC43CCN(C(=O)CO)C3)o2)cc1C#N (stereo not drawn) [Compound 21] | 21.7 | 70.8 | –
CC(C)Oc1ccc(-c2nc(-c3cccc4c3CCC43CCN(C(=O)CC#N)C3)no2)cc1C#N (stereo not drawn) [Compound 4] | 0.107 | 99.4 | –
